Biological target: T1, TbNMT (Trypanosoma brucei brucei, UniProt Q388H8)
T1 sequence (Q388H8 1-446): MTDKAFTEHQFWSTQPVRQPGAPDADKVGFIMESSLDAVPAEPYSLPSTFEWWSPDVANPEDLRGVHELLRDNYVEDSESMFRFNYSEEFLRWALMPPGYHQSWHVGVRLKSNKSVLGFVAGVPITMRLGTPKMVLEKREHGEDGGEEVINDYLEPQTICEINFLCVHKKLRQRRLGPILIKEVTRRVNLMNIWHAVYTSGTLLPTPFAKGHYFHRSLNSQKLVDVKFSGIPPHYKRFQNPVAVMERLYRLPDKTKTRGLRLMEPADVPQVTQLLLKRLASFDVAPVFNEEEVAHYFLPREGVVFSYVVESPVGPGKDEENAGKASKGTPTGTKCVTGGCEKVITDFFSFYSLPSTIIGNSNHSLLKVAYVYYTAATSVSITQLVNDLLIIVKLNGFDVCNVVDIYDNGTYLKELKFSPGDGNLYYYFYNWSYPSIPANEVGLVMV
Experiment: biochemical

IC50: > 100 µM
SMILES: Cc1nn(C)c(C)c1NCc1ccc(Br)cc1 [Compound 21]

— article PMC3256935 (Journal of Medicinal Chemistry, 2011)
